Laboratory results as given in patent publication US8592426B2, “Aryl-benzocycloalkyl amide derivatives” (Hoffmann—La Roche Inc., priority 2011, dated 2013).

Experiments:
[1] = molecular target: T1, Bradykinin-1 receptor (Homo sapiens (Human), UniProt P46663); assay: Receptor binding assay (B1R Binding Assay), [3H]-Kallidin (Des Arg10, Leu9) displacement; conditions: membranes from CHO-K1 cells overexpressing Bradykinin-1 receptor; 6 nM radioligand
Description: Binding assays were done with membranes from CHO-K1 cells overexpressing Bradykinin-1 receptor.
To determine non-specific binding 10 μM Lys-(Des-Arg^9)-Bradykinin (Bachem) was added. Membranes were harvested through GF/B (glass fiber filter; PerkinElmer) plates, equilibrated with 0.5% polyethylenimine, air dried at 50° C. for 2 h. Radioactivity was determined by counting in a topcounter (NXT Packard).

[2] = molecular target: T1, Bradykinin-1 receptor; assay: Calcium mobilization assay (FLIPR, Fluo-4) in GeneBLAzer Bradykinin (B1)-NFAT-bla CHO-K1 cells; type: cell-based; conditions: antagonist activity; CHO-K1 cells stably overexpressing the human bradykinin 1 receptor; read-out: Ca mobilization Assay IC50

T1 sequence (P46663 whole entry): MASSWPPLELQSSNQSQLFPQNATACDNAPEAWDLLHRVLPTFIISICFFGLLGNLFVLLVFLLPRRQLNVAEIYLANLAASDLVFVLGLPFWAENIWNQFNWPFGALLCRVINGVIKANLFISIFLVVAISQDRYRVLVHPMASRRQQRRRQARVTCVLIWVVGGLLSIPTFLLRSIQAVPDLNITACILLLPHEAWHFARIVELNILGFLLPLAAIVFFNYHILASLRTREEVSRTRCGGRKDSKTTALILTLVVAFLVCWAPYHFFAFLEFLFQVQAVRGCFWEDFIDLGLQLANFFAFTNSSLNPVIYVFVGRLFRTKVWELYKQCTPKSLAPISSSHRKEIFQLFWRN

For `COc1cc(C(=O)NC2(C(=O)NC3CCc4cc(-c5cc(Cl)cc(F)c5-c5noc(C)n5)cc(F)c43)CC2)on1` (racemic) [Example 35, 3-Methoxy-isoxazole-5-carboxylic acid(1-{(rac)-5-[5-chloro-3-fluoro-2-(5-methyl-[1,2,4]oxadiazol-3-yl)-phenyl]-7-fluoro-indan-1-ylcarbamoyl}-cyclopropyl)-amide], the Ki [1] was 17.1 nM and the IC50 [2] was 0.5 nM.
